Data published in the supplement of paper PMC10307832.

Key:
Experiment in all cases: relative viability (nuclei count vs DMSO), 5 days (fraction); higher = more cells survive
Afatinib + Vorinostat = compound: CN(C)C/C=C/C(=O)Nc1cc2c(Nc3ccc(F)c(Cl)c3)ncnc2cc1O[C@H]1CCOC1 [Afatinib] + O=C(CCCCCCC(=O)Nc1ccccc1)NO [Vorinostat] (partner 1 µM)
Method in brief: (§1)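 After 5 days of treatment, lung cancer cells in 1536-well plates were fixed and stained in a single step (final 0.05% Triton X-100, 1% formaldehyde, 1 ug/ml Hoechst) and their nuclei counted on 4× images. Treatment had been applied by pin tool the day after seeding as one drug alone or as a fixed anchor-drug dose with five library-drug doses (not always all listed) in √10 steps. Relative viability is the nuclei count of treated wells divided by that of vehicle wells, and values are medians of duplicate plates.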

Afatinib + Pemetrexed = compound: CN(C)C/C=C/C(=O)Nc1cc2c(Nc3ccc(F)c(Cl)c3)ncnc2cc1O[C@H]1CCOC1 [Afatinib] + Nc1nc2[nH]cc(CCc3ccc(C(=O)N[C@@H](CCC(=O)O)C(=O)O)cc3)c2c(=O)[nH]1 [Pemetrexed] (partner 0.2 µM)
Method in brief: as §1

Afatinib + Navitoclax = compound: CN(C)C/C=C/C(=O)Nc1cc2c(Nc3ccc(F)c(Cl)c3)ncnc2cc1O[C@H]1CCOC1 [Afatinib] + CC1(C)CCC(c2ccc(Cl)cc2)=C(CN2CCN(c3ccc(C(=O)NS(=O)(=O)c4ccc(N[C@H](CCN5CCOCC5)CSc5ccccc5)c(S(=O)(=O)C(F)(F)F)c4)cc3)CC2)C1 [Navitoclax] (partner 0.5 µM)
Method in brief: as §1

Afatinib + Linsitinib = compound: CN(C)C/C=C/C(=O)Nc1cc2c(Nc3ccc(F)c(Cl)c3)ncnc2cc1O[C@H]1CCOC1 [Afatinib] + C[C@]1(O)C[C@@H](c2nc(-c3ccc4ccc(-c5ccccc5)nc4c3)c3c(N)nccn32)C1 [Linsitinib] (partner 1 µM)
Method in brief: as §1

Cell Line	relative viability (Afatinib + Vorinostat; first compound 0.005 µM)	relative viability (Afatinib + Vorinostat; first compound 0.01581 µM)	relative viability (Afatinib + Vorinostat; first compound 0.05 µM)	relative viability (Afatinib + Vorinostat; first compound 0.1581 µM)	relative viability (Afatinib + Vorinostat; first compound 0.5 µM)	relative viability (Afatinib + Pemetrexed; first compound 0.005 µM)	relative viability (Afatinib + Pemetrexed; first compound 0.01581 µM)	relative viability (Afatinib + Pemetrexed; first compound 0.05 µM)	relative viability (Afatinib + Pemetrexed; first compound 0.1581 µM)	relative viability (Afatinib + Pemetrexed; first compound 0.5 µM)	relative viability (Afatinib + Navitoclax; first compound 0.005 µM)	relative viability (Afatinib + Navitoclax; first compound 0.01581 µM)	relative viability (Afatinib + Navitoclax; first compound 0.05 µM)	relative viability (Afatinib + Navitoclax; first compound 0.1581 µM)	relative viability (Afatinib + Navitoclax; first compound 0.5 µM)	relative viability (Afatinib + Linsitinib; first compound 0.005 µM)	relative viability (Afatinib + Linsitinib; first compound 0.01581 µM)	relative viability (Afatinib + Linsitinib; first compound 0.05 µM)	relative viability (Afatinib + Linsitinib; first compound 0.1581 µM)	relative viability (Afatinib + Linsitinib; first compound 0.5 µM)
NCI-H1734	0.795	0.826	0.874	0.779	0.831	0.411	0.374	0.406	0.375	0.453	1.01	0.877	0.885	0.78	0.781	0.9	0.75	0.931	0.865	0.771
NCI-H1755	0.9	0.935	0.789	0.79	0.727	0.405	0.611	0.463	0.402	0.421	0.957	0.981	1.08	0.995	0.987	0.979	0.992	0.997	0.938	0.995
NCI-H1793	0.733	0.424	0.411	0.401	0.38	0.814	0.582	0.584	0.582	0.503	0.404	0.348	0.356	0.357	0.32	0.566	0.431	0.61	0.461	0.514
NCI-H1915	0.525	0.518	0.497	0.476	0.464	0.532	0.491	0.468	0.52	0.427	0.795	0.763	0.779	0.813	0.778	1.13	1.08	1.11	1.07	1.07
NCI-H1944	0.514	0.562	0.42	0.413	0.406	0.605	0.583	0.511	0.378	0.453	1.04	0.959	0.903	0.668	0.765	1.04	0.904	0.776	0.566	0.571
NCI-H1975	0.711	0.667	0.59	0.357	0.26	0.287	0.28	0.295	0.276	0.209	1.19	1.14	1.24	0.488	0.624	0.901	1.1	0.794	0.261	0.217
NCI-H1993	0.662	0.437	0.731	0.466	0.541	0.569	0.526	0.638	0.551	0.506	0.674	0.722	0.735	0.788	0.704	0.714	0.736	0.803	0.822	0.696
NCI-H2009	0.772	0.775	0.812	0.701	0.755	1.04	1.01	0.977	1.03	1.01	1.19	1.12	1.27	1.15	1.18	1.23	1.14	1.23	1.13	1.22
NCI-H2023	0.445	0.566	0.592	0.556	0.549	0.222	0.209	0.231	0.189	0.208	1.01	1.01	0.876	0.792	0.854	0.577	0.494	0.453	0.355	0.414
NCI-H2085	0.746	0.684	0.66	0.623	0.682	0.821	0.671	0.842	0.681	0.699	0.985	1.03	0.994	0.808	0.936	0.726	0.773	0.769	0.417	0.675
NCI-H2087	0.658	0.625	0.968	0.91	0.592	0.763	0.668	0.664	0.671	0.652	0.996	0.957	1.11	0.837	0.925	0.985	0.916	1.01	0.918	0.986
NCI-H2126	0.732	0.683	0.617	0.43	0.481	0.715	0.66	0.623	0.469	0.45	0.836	0.854	0.829	0.441	0.411	0.724	0.701	0.583	0.465	0.424
NCI-H2228	0.928	0.444	0.566	0.698	0.462	0.283	0.306	0.334	0.298	0.322	0.864	0.906	0.865	–	0.51	0.604	0.778	0.631	–	0.502
NCI-H2347	0.628	0.73	0.587	0.524	0.565	0.401	0.414	0.426	0.45	0.392	0.932	0.79	0.873	0.903	0.804	1.04	0.933	1.03	1.08	1.03
NCI-H2405	1.2	0.848	0.976	0.953	0.938	1.09	1.14	1.12	1.01	0.953	0.857	0.879	0.912	0.715	1.07	0.808	0.875	0.963	0.836	0.906
NCI-H3122	1.1	1	1.06	0.956	0.944	0.206	0.196	0.199	0.187	0.187	1.02	0.976	1.05	0.91	1.03	1.02	1.02	0.963	0.822	1.08
